From patent publication US9617264B2, “2,7-diazaspiro[3.5]nonane compounds” (REMYND NV, priority 2014, dated 2017)

Experiments:
M17_3SYN cells = assay: Paraquat-induced cytotoxicity (LDH) in α-synuclein over-expressing M17_3SYN neuroblastoma cells; type: cell-based; details: Homo sapiens, Neuroblastoma cell, 48 h, 6 mM Paraquat, 2 days, LDH toxicity inhibition, read-out: SYN EC50
From the text: A α-synuclein expression plasmid was constructed by subcloning the NcoI/XhoI fragment from 212T-SYN(WT) (Griffioen et al., Biochem Biophys Acta (2006) 1762(3):312-318) containing the cDNA of human wild type α-synuclein correspondingly into a standard mammalian expression vector pcDNA3.1 resulting in plasmid pcDNA3.1-SYNwt. Plasmids pcDNA3.1 and pcDNA3.1-SYNwt were transfected into human neuroblastoma cells (BE-M17; ATCC No. CRL-2267™) using lipofectamine reagent and subsequently, independent clonal cell lines with the plasmids stably integrated into the genome were selected by antibiotic resistance selection (Geneticin (G418)), resulting in cell lines M17.pcDNA3 and M17_3SYN. Overexpression of α-synuclein in the M17_3SYN cell line was confirmed by Western blot analysis.
Due to the high levels of α-synuclein, M17_3SYN cells were sensitive to paraquat, a well-known risk factor Parkinson's disease and of synuclein-dependent neuronal degeneration. Cytotoxicity of cells was measured by quantification of lactate dehydrogenase (LDH) levels. In dead cells, LDH leaked out of the cells into the medium due to a loss of plasma-membrane integrity.
Three days preceding the experiment, primary pre-cultures of M17.pcDNA3 (as possible control) and M17_3SYN cells were prepared, starting from a stock culture, at a density of 20.000-40.000 cells/cm2 in culture medium (Opti-MEM® Reduced Serum Medium with Phenol Red (Invitrogen, Cat. 31985-047) supplemented with 10% FCS, 1 mM sodium pyruvate, 1×NEAA, 500 μg/ml G418 and 0.5× antibiotic/antimycotic (ABAM)). 3 days later these primary pre-cultures were used as a starting point to make secondary pre-cultures at a density of 50.000-100.000 cells/cm^2. At the day of the experiment these secondary precultures were diluted to ˜0.5·10^6 cells/ml in detection medium (Opti-MEM® Reduced-Serum Medium without Phenol Red (Invitrogen, Cat. 11085-021) supplemented with 10% FCS, 1 mM sodium pyruvate, 1×NEAA, 500 μg/ml G418 and 0.5×ABAM) and 60 μL of this suspension was dispensed per well into a 96-well microtiter plate. After 3 hours of incubation at 37° C./5% CO2 an equal volume of detection medium containing a final concentration of 6 mM Paraquat was added and subsequently incubated for 2 days at 37° C./5% CO2. Then LDH activity was determined using the Promega Cytotox 96 Non-Radioactive cytotoxicity assay (Promega, Cat. G1780), according to the manufacturer's instructions. Cytotoxicity was defined as the ratio of LDH relative to the total LDH in the cells and supernatant.
The assay described above using the M17_3SYN cell line allowed screening compounds for their ability to decrease cytotoxicity in PQ-challenged cells. Compounds of the invention were tested for their ability to decrease toxicity at different concentrations, ranging from low non-effective concentrations to high effective concentrations. Afterwards, a dose-dependent inhibition curve was used to calculate the EC50. A compound was considered to be active in this test when it inhibited toxicity by more than 20% relative to untreated M17_3SYN cells at a concentration of […] or lower.

INS-1E cells = assay: Cytokine-induced apoptosis (caspase-3/7 activation, Caspase-Glo 3/7) in INS-1E rat insulinoma cells; type: cell-based; details: cytokine mix (IFN-γ, IL-1, TNF-α), 24 hours, caspase 3/7 activity, read-out: CYT EC50
From the text: The INS-1E cell line, a rat insulinoma cell line, has been characterized extensively. INS-1E cells respond to glucose by secreting insulin and, unlike most other immortalized n-cell lines, they do this in a consistent manner over time. The cells are sensitive to hyperglycemia-, free fatty acid (FFA)-, and cytokine-induced stress. Prolonged stress ultimately leads to induction of apoptotic pathways and, if stress is not counter-acted, to apoptosis. Caspase-3 and -7 play a central role downstream where various apoptotic pathways merge. As such, activation (i.e. cleavage) of these caspases forms a relevant primary read-out to evaluate protective activity of compounds against stress-induced apoptosis.
To evaluate the efficacy of different compounds to prevent induction of apoptosis, an in vitro screen was developed in which INS-1E cells were exposed to a cytokine mix (IFN-γ, 5 ng/ml; IL-1, 20 pg/ml; TNF-α, 0.25 ng/ml). The degree of induction of apoptosis was evaluated using a substrate for cleaved caspase-3 and -7, i.e. a proluminescent caspase-3/7 DEVD aminoluciferin substrate with a thermostable luciferase (Caspase-Glo® 3/7 assay; Promega, cat. G8092).
On day 0, INS-1E cells were plated in a white-walled 96-well microplate (Greiner, cat. 655098) at 20,000 cells per well in 100 μl complete medium (RPMI containing 11 mM glucose supplemented with 5% FCS, 100 IU/ml penicillin, 100 μg/ml streptomycin, 10 mM HEPES, 1 mM Sodium Pyruvate and 50 μM 2-Mercapto-ethanol). On day 2, 100 μl medium containing cytokines and compound dissolved in DMSO was added to the cells. Wells without cytokines containing DMSO and wells with cytokines and DMSO were included to evaluate the degree of caspase 3/7 activation by the cytokine mix. After 24 hours exposure to cytokines and/or compound, Caspase-Glo® 3/7 reagent was added to the cells and caspase activity was determined by measuring luminescence.
To evaluate compound efficacy, the “toxicity window” was calculated by subtracting caspase activity of wells without stressor from activity of wells with stressor but without compound. The amount of caspase activity in the latter wells was normalized to 1 and used as reference. Subsequently, caspase activity in the wells with stressor and varying concentrations of compound was calculated relative to the wells without compound. Plotting caspase activity vs the log 10 of the concentration of compound permitted calculation of the EC50 values for the compounds which typically lied between 0.0001 and 10 μM. Compounds with an EC50<10 μM were considered active.

| EC50 (INS-1E cells) | Compound | EC50 (M17_3SYN cells) |
| --- | --- | --- |
| 201 nM | COc1ccc(S(=O)(=O)N2CCC3(CC2)CN(S(=O)(=O)c2ccc(OC)cc2)C3)cc1 [Cmpd001, 2,7-Bis((4-methoxyphenyl)sulfonyl)-2,7-diazaspiro[3.5]nonane] | 1.1 nM |
| 20 nM | COc1ccc(S(=O)(=O)N2CCC3(CC2)CN(S(=O)(=O)c2ccc(Cl)cc2)C3)cc1 [Cmpd005, 2-((4-Chlorophenyl)sulfonyl)-7-((4-methoxyphenyl)sulfonyl)-2,7-diazaspiro[3.5]nonane] | 6.4 nM |
| 248 nM | CCC(C(=O)N1CC2(CCN(S(=O)(=O)c3ccc(OC)cc3)CC2)C1)c1ccccc1 (centres unmarked) [Cmpd011, 1-(7-((4-Methoxyphenyl)sulfonyl)-2,7-diazaspiro[3.5]nonan-2-yl)-2-phenylbutan-1-one] | 66.4 nM |
| 34 nM | COc1ccc(S(=O)(=O)N2CCC3(CC2)CN(C(=O)C2(c4ccccc4)CC2)C3)cc1 [Cmpd014, (7-((4-Methoxyphenyl)sulfonyl)-2,7-diazaspiro[3.5]nonan-2-yl)(1-phenylcyclopropyl)methanone] | 56.8 nM |
| 31 nM | COc1ccc(S(=O)(=O)N2CCC3(CC2)CN(C(=O)CCc2ccc(F)cc2)C3)cc1 [Cmpd015, 3-(4-Fluorophenyl)-1-(7-((4-methoxyphenyl)sulfonyl)-2,7-diazaspiro[3.5]nonan-2-yl)propan-1-one] | 535 nM |
| 58 nM | COc1ccc(S(=O)(=O)N2CCC3(CC2)CN(C(=O)C(C)(O)c2ccccn2)C3)cc1 (centres unmarked) [Cmpd018, 2-Hydroxy-1-(7-((4-methoxyphenyl)sulfonyl)-2,7-diazaspiro[3.5]nonan-2-yl)-2-(pyridin-2-yl)propan-1-one] | 241 nM |
| 54 nM | COc1ccc(C(C)C(=O)N2CC3(CCN(S(=O)(=O)c4ccc(OC)cc4)CC3)C2)cc1 (centres unmarked) [Cmpd019, 2-(4-Methoxyphenyl)-1-(7-((4-methoxyphenyl)sulfonyl)-2,7-diazaspiro[3.5]nonan-2-yl)propan-1-one] | 95.3 nM |
| 43 nM | COc1ccc(S(=O)(=O)N2CCC3(CC2)CN(C(=O)C(C)(C)c2ccccc2C)C3)cc1 [Cmpd020, 1-(7-((4-Methoxyphenyl)sulfonyl)-2,7-diazaspiro[3.5]nonan-2-yl)-2-methyl-2-(o-tolyl)propan-1-one] | 14.3 nM |
| 108 nM | COc1ccc(S(=O)(=O)N2CCC3(CC2)CN(C(=O)[C@H](c2ccc(F)cc2)C(C)C)C3)cc1 [Cmpd022, (S)-2-(4-fluorophenyl)-1-(7-((4-methoxyphenyl)sulfonyl)-2,7-diazaspiro[3.5]nonan-2-yl)-3-methylbutan-1-one] | 28.7 nM |
| 19 nM | COc1ccc(S(=O)(=O)N2CCC3(CC2)CN(C(=O)C(C)c2ccccc2OC)C3)cc1 (centres unmarked) [Cmpd023, 2-(2-Methoxyphenyl)-1-(7-((4-methoxyphenyl)sulfonyl)-2,7-diazaspiro[3.5]nonan-2-yl)propan-1-one] | 39 nM |
| 63 nM | COc1ccc(S(=O)(=O)N2CCC3(CC2)CN(C(=O)C(C)(C)c2ccccc2OC)C3)cc1 [Cmpd024, 2-(2-Methoxyphenyl)-1-(7-((4-methoxyphenyl)sulfonyl)-2,7-diazaspiro[3.5]nonan-2-yl)-2-methylpropan-1-one] | 81.5 nM |
| 616 nM | COc1ccc(S(=O)(=O)N2CCC3(CC2)CN(C(=O)C2CCCc4ccccc42)C3)cc1 (centres unmarked) [Cmpd025, (7-((4-Methoxyphenyl)sulfonyl)-2,7-diazaspiro[3.5]nonan-2-yl)(1,2,3,4-tetrahydronaphthalen-1-yl)methanone] | 65.3 nM |
| 88 nM | COc1ccc(S(=O)(=O)N2CCC3(CC2)CN(C(=O)C(C)c2ccc(Cl)cc2)C3)cc1 (centres unmarked) [Cmpd026, 2-(4-Chlorophenyl)-1-(7-((4-methoxyphenyl)sulfonyl)-2,7-diazaspiro[3.5]nonan-2-yl)propan-1-one] | 131 nM |
| 181 nM | COc1ccc(S(=O)(=O)N2CCC3(CC2)CN(C(=O)C(C)(C)c2ccc(Cl)cc2)C3)cc1 [Cmpd027, 2-(4-Chlorophenyl)-1-(7-((4-methoxyphenyl)sulfonyl)-2,7-diazaspiro[3.5]nonan-2-yl)-2-methylpropan-1-one] | 14.8 nM |
| 29 nM | COc1ccc(S(=O)(=O)N2CCC3(CC2)CN(C(=O)C2(c4ccccc4)CCCC2)C3)cc1 [Cmpd028, (7-((4-Methoxyphenyl)sulfonyl)-2,7-diazaspiro[3.5]nonan-2-yl)(1-phenylcyclopentyl)methanone] | 22 nM |
| 57 nM | COc1ccc(S(=O)(=O)N2CCC3(CC2)CN(C(=O)C(C)c2cc(F)cc(F)c2)C3)cc1 (centres unmarked) [Cmpd029, 2-(3,5-Difluorophenyl)-1-(7-((4-methoxyphenyl)sulfonyl)-2,7-diazaspiro[3.5]nonan-2-yl)propan-1-one] | 189 nM |
| 188 nM | O=S(=O)(c1ccc(OC(F)F)cc1)N1CCC2(CC1)CN(S(=O)(=O)c1ccc(F)cc1)C2 [Cmpd044, 7-((4-(Difluoromethoxy)phenyl)sulfonyl)-2-((4-fluorophenyl)sulfonyl)-2,7-diazaspiro[3.5]nonane] |  |
| 14 nM | COc1ccc(S(=O)(=O)N2CC3(CCN(S(=O)(=O)c4ccc(Cl)cc4)CC3)C2)cc1 [Cmpd047, 7-((4-Chlorophenyl)sulfonyl)-2-((4-methoxyphenyl)sulfonyl)-2,7-diazaspiro[3.5]nonane] |  |
| 61 nM | O=S(=O)(c1ccc(OC(F)F)cc1)N1CCC2(CC1)CN(S(=O)(=O)c1ccc(OC(F)F)cc1)C2 [Cmpd048, 2,7-Bis((4-(difluoromethoxy)phenyl)sulfonyl)-2,7-diazaspiro[3.5]nonane] |  |
| 90 nM | CCOc1ccc(S(=O)(=O)N2CCC3(CC2)CN(S(=O)(=O)c2ccc(OC(F)F)cc2)C3)cc1 [Cmpd049, 2-((4-(Difluoromethoxy)phenyl)sulfonyl)-7-((4-ethoxyphenyl)sulfonyl)-2,7-diazaspiro[3.5]nonane] |  |
| 103 nM | O=S(=O)(c1ccc(Cl)cc1)N1CCC2(CC1)CN(S(=O)(=O)c1ccc(OC(F)F)cc1)C2 [Cmpd050, 7-((4-Chlorophenyl)sulfonyl)-2-((4-(difluoromethoxy)phenyl)sulfonyl)-2,7-diazaspiro[3.5]nonane] |  |
| 33 nM | O=S(=O)(c1ccc(F)cc1)N1CCC2(CC1)CN(S(=O)(=O)c1ccc(OC(F)F)cc1)C2 [Cmpd051, 2-((4-(Difluoromethoxy)phenyl)sulfonyl)-7-((4-fluorophenyl)sulfonyl)-2,7-diazaspiro[3.5]nonane] |  |
